SMILES	melting point [°C]
CCC1NNS(=O)(=O)c2cc(Cl)ccc21 (stereo not shown) [Example 2, 4-Ethyl-7-chloro-3,4-dihydrobenzo[1,2,3]thiadiazine-1,1-dioxide]	128 to 130
COc1ccc2c(c1)CNNS2(=O)=O [Example 13, 6-Methoxy-3,4-dihydrobenzo[1,2,3]thiadiazine-1,1-dioxide]	181 to 182
O=S1(=O)NNCc2ccccc21 [Example 14, 3,4-Dihydrobenzo[1,2,3]thiadiazine-1,1-dioxide]	134 to 136
CCC1NN(C)S(=O)(=O)c2c1ccc(Cl)c2Cl (stereo not shown) [Example 17, 7,8-Dichloro-4-ethyl-2-methyl-3,4-dihydrobenzo[1,2,3]thiadiazine-1,1-dioxide]	139 to 141
Cc1cc(Cl)c(Cl)c2c1C(C)NN(C)S2(=O)=O (stereo not shown) [Example 18, 7,8-Dichloro-2,4,5-trimethyl-3,4-dihydrobenzo[1,2,3]thiadiazine-1,1-dioxide]	101 to 102
CCN1NC(C)c2ccc(Cl)c(Cl)c2S1(=O)=O (stereo not shown) [Example 21, 7,8-Dichloro-2-ethyl-4-methyl-3,4-dihydrobenzo[1,2,3]thiadiazine-1,1-dioxide]	135 to 136
CCC1NN(CC)S(=O)(=O)c2c1ccc(Cl)c2Cl (stereo not shown) [Example 22, 2,4-Diethyl-7,8-dichloro-3,4-dihydrobenzo[1,2,3]thiadiazine-1,1-dioxide]	118 to 120
CC1NN(C)S(=O)(=O)c2c(Cl)cccc21 (stereo not shown) [Example 23, 2,4-Dimethyl-8-chloro-3,4-dihydrobenzo[1,2,3]thiadiazine-1,1-dioxide]	128 to 130
CCN1NC(C)c2cccc(Cl)c2S1(=O)=O (stereo not shown) [Example 24, 2-Ethyl-8-chloro-4-methyl-3,4-dihydrobenzo[1,2,3]thiadiazine-1,1-dioxide]	79 to 80
Cc1cc2c(c(Cl)c1Cl)S(=O)(=O)N(C)NC2C (stereo not shown) [Example 25, 7,8-Dichloro-2,4,6-trimethyl-3,4-dihydrobenzo[1,2,3]thiadiazine-1,1-dioxide]	141 to 142

The remaining lines, values ahead:

melting point [°C]	SMILES
222 to 224	CCC1NNS(=O)(=O)c2c1ccc(Cl)c2Cl (stereo not shown) [Example 4, 7,8-Dichloro-4-ethyl-3,4-dihydrobenzo[1,2,3]thiadiazine-1,1-dioxide]
253 to 254	Cc1cc2c(c(Cl)c1Cl)S(=O)(=O)NNC2C (stereo not shown) [Example 6, 7,8-Dichloro-4,6-dimethyl-3,4-dihydrobenzo[1,2,3]thiadiazine-1,1-dioxide]
202 to 203	CC1NNS(=O)(=O)c2c(Cl)cccc21 (stereo not shown) [Example 7, 8-chloro-4-methyl-3,4-dihydrobenzo[1,2,3]thiadiazine-1,1-dioxide]
150 to 152	CC1NNS(=O)(=O)c2ccccc21 (stereo not shown) [Example 8, 4-Methyl-3,4-dihydrobenzo[1,2,3]thiadiazine-1,1-dioxide]
231 to 233	COc1ccc2c(c1Cl)S(=O)(=O)NNC2C (stereo not shown) [Example 9, 8-chloro-4-methyl-7-methoxy-3,4-dihydrobenzo[1,2,3]thiadiazine-1,1-dioxide]
211 to 213	COc1ccc2c(c1OC)S(=O)(=O)NNC2C (stereo not shown) [Example 10, 7,8-Dimethoxy-4-methyl-3,4-dihydrobenzo[1,2,3]thiadiazine-1,1-dioxide]
231 to 233	COc1cccc2c1S(=O)(=O)NNC2C (stereo not shown) [Example 11, 4-Methyl-8-methoxy-3,4-dihydrobenzo[1,2,3]thiadiazine-1,1-dioxide]
209 to 210	COc1ccc2c(c1Cl)S(=O)(=O)NNC2 [Example 15, 8-chloro-7-methoxy-3,4-dihydrobenzo[1,2,3]thiadiazine-1,1-dioxide]
141 to 143	COc1ccc2c(c1Cl)S(=O)(=O)N(C)NC2C (stereo not shown) [Example 19, 2,4-Dimethyl-8-chloro-7-methoxy-3,4-dihydrobenzo[1,2,3]thiadiazine-1,1-dioxide]

From patent publication US20100190778A1, “3,4-DIHYDROBENZO[1,2,3]THIADIAZINE-1,1-DIOXIDE DERIVATIVES, PROCESS FOR PREPARATION THEREOF, MEDICAMENTS CONTAINING SAID DERIVATIVES AND THEIR USE” (EGIS GYOGYSZERGYAR NYILVANOSAN MUKODO RESZVENTARSASAG, priority 2006, published 2010)
